This note sets out measurements from patent US5254565A, “Quinoline derivatives, their production and use” (priority 1988, dated 1993).

One experiment relates to plasma cholesterol. Kind of experiment: Plasma cholesterol lowering activity in cholesterol fed rat. The note with it: diet containing 0.0005% of test compound for 4 days; mean ± standard deviation; control 240 ± 85; *p < 0.05 (t test vs control group); Dose (mg/kg/day): 23 0.40 ± 0.03, 30 0.45 ± 0.02, 32 0.43 ± 0.04. In kind it is in vivo, rat (7-week old, male Sarague Dawley rats). As for the experimental part:
2. Plasma cholesterol lowering activity in cholesterol fed rat.
1% Cholesterol diet (containing 0.5% of cholic acid and 5% of olive oil) was fed to 7-week old, male Sarague Dawley rats for 3 days. The rats were grouped by the plasma cholesterol level, and fed by the same diet containing 0.0005% of a test compound for 4 days. Blood was collected from rats during 8:30-10:00 am at the fed state, and the plasma cholesterol level was measured enzymatically. The amount of a test compound consumed by rats was calculated on the basis of the amount of the diet consumed by the rats.

Experiment [1] deals with T1, Acyl-CoA : cholesterol acyltransferase (ACAT) (Rattus norvegicus, UniProt Q7TQM4).
T1 construct: from the mucosal microsome fraction of the small intestine of male, 6-week old Sprague-Dawley rats; from tissue; host or cells: mucosal microsome fraction of the small intestine of male 6-week old Sprague-Dawley rats, fasted for 20 hours
T1 sequence (Q7TQM4 1-524): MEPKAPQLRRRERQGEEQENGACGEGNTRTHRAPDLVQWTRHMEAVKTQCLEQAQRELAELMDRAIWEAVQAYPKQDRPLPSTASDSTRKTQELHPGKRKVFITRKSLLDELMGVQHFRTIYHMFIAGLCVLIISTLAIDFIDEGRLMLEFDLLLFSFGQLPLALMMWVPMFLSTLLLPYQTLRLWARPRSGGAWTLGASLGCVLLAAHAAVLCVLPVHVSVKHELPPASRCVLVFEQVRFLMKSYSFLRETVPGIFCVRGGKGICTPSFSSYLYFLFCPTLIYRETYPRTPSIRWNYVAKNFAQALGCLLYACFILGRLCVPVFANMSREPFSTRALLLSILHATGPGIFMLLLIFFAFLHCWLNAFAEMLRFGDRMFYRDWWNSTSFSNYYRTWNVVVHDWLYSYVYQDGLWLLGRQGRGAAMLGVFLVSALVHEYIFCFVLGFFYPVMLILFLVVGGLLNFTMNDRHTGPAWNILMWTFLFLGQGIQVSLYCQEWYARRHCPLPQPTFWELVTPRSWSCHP
The experiment in a line: Acyl-CoA : cholesterol acyltransferase (ACAT) inhibitory activity: production of labeled cholesterol ester from [1-^14 C] oleoyl-CoA and endogenous cholesterol. In kind it is biochemical. As to conditions: read-out: ACAT Inhibition Rate; for inhibition at 1 µM: 10^-6 M test compound; for inhibition at 0.01 µM: 10^-8 M test compound. As for the experimental part: 1. Acyl-CoA : cholesterol acyltransferase (ACAT) inhibitory activity.
The enzyme ACAT was prepared by the method of Heider et al. described in Journal of Lipid Research, Vol. 24, page 1127 (1982), from the mucosal microsome fraction of the small intestine of male, 6-week old Sprague-Dawley rats which had been fasted for 20 hours.
ACAT activity was calculated by the method of Helgerud et al. described in Journal of Lipid Research, Vol. 22, page 271 (1981), namely, by measuring the amount of the labeled cholesterol ester produced from [1-^14 C] oleoyl-CoA and endogenous cholesterol.
Inhibition rates (%) of the production of the labeled cholesterol ester wherein 10^-6 M-10^-8 M of test compounds were added are shown as an index of ACAT inhibitory activity in Table 1.

In the case of `Cc1ccc2ncc(NC(=O)Nc3ccc(F)cc3F)c(-c3ccccc3Cl)c2c1` [Example 30, 4-(2-Chlorophenyl)-3-[3-(2,4-difluorophenyl)ureido]-6-methylquinoline], in the experiment with plasma cholesterol, the “Plasma Cholesterol” value came out at 143 ± 21 mg/dL. Moreover, the inhibition (in general, how much of the control response was suppressed) at 1 µM in experiment [1] is 98.5%.
On to `Cc1cc(C)c2ncc(NC(=O)Nc3ccc(F)cc3F)c(-c3ccccc3Cl)c2c1` [Example 32, 4-(2-Chlorophenyl)-3-[3-(2,4-difluorophenyl)ureido]-6,8-dimethylquinoline], for which the “Plasma Cholesterol” value with plasma cholesterol was 119 ± 46 mg/dL. Besides, in experiment [1], the inhibition at 1 µM was 98.9% and the inhibition at 0.01 µM stood at 52.1%.
For `COc1ccc(-c2c(NC(=O)Nc3ccc(F)cc3F)cnc3ccc(Cl)cc23)c(O)c1OC` [Example 69, 6-Chloro-3-[3-(2,4-difluorophenyl)ureido]-4-(2-hydroxy-3,4-dimethoxyphenyl)quinoline], the inhibition at 1 µM in experiment [1] was found to be 78.2%.
In the case of `Cc1cc(C)c2ncc(NC(=O)Nc3ccc(F)cc3F)c(-c3ccccc3C)c2c1` [Example 39, 3-[3-(2,4-Difluorophenyl)ureido]-6,8-dimethyl-4-(2-methylphenyl)quinoline], in experiment [1], the inhibition at 1 µM is 98.5% and the inhibition at 0.01 µM was found to be 43.3%.
Turning to `Cc1cc(C)c2ncc(N(Cc3cc(C(C)(C)C)c(O)c(C(C)(C)C)c3)C(=O)Nc3ccc(F)cc3F)c(-c3ccccc3Cl)c2c1` [Example 67, 3-[1-(3,5-Di-tert-butyl-4-hydroxybenzyl)-3-(2,4-difluorophenyl)ureido]-4-(2-chlorophenyl)-6,8-dimethylquinoline], the inhibition at 1 µM in experiment [1] was determined as 90.1%.
With `Cc1ccc2ncc(NC(=O)Nc3ccc(F)cc3F)c(-c3ccccc3)c2c1` [Example 13, 3-[3-(2,4-Difluorophenyl)ureido]-6-methyl-4-phenylquinoline], the inhibition at 1 µM in experiment [1] came out at 84.5%.
In the case of `O=C(Nc1ccc(F)cc1F)Nc1cnc2ccc(Cl)cc2c1-c1ccccc1` [Example 1, 6-chloro-3-[3-(2,4-difluorophenyl)ureido]-4-phenylquinoline], in experiment [1], the inhibition at 1 µM stood at 88.3%.
Still for that read-out and setting: next, `Cc1cc(C)c2c(c1)c(-c1ccccc1Cl)c(NC(=O)Nc1ccc(F)cc1F)c[n+]2[O-]` [Example 63, 4-(2-chlorophenyl)-3-[3-(2,4-difluorophenyl)ureido]-6,8-dimethylquinoline 1-oxide]: 94.4%; `CC(=O)Oc1c(C)cc(NC(=O)Nc2cnc3c(C)cc(C)cc3c2-c2ccccc2Cl)cc1C` [Example 77, 3-[3-(4-Acetoxy-3,5-dimethylphenyl)ureido]-4-(2-chlorophenyl)-6,8-dimethylquinoline]: 96.2%; `Cc1ccccc1-c1c(NC(=O)Nc2ccc(F)cc2F)cnc2ccc(Cl)cc12` [Example 27, 6-Chloro-3-[3-(2,4-difluorophenyl)ureido]-4-(2-methylphenyl)quinoline]: 97.2%.
The same measure, in the same setting: next, `CCc1ccc2ncc(NC(=O)Nc3ccc(F)cc3F)c(-c3ccccc3)c2c1` [Example 14, 3-[3-(2,4-Difluorophenyl)ureido]-6-ethyl-4-phenylquinoline]: 90.1%.
Consider `O=C(Nc1ccc(F)cc1F)Nc1cnc2ccc(Cl)cc2c1-c1ccccc1Cl` [Example 23, 6-Chloro-4-(2-chlorophenyl)-3-[3-(2,4-difluorophenyl)ureido]quinoline], for which the “Plasma Cholesterol” value in the experiment with plasma cholesterol came to 126 ± 33 mg/dL. In experiment [1], the inhibition at 1 µM was determined as 98% and the inhibition at 0.01 µM came to 34.3%. The inhibition at 0.1 µM in experiment [1] (10^-7 M test compound) was determined as 94.1%.
With `Cc1cc(C)c2ncc(NC(=O)Nc3ccc([N+](=O)[O-])cc3)c(-c3ccccc3Cl)c2c1` [Example 72, 4-(2-Chlorophenyl)-3-[3-(4-nitrophenyl)ureido]-6,8-dimethylquinoline], the inhibition at 1 µM in experiment [1] came to 97.3%.
Same read-out and setting: next, `O=C(Nc1cnc2ccc(Cl)cc2c1-c1ccccc1)Nc1c(F)cccc1F` [Example 46, 6-chloro-3-[3-(2,6-difluorophenyl)ureido]-4-phenylquinoline]: 75.7%; `COc1cc(NC(=O)Nc2cnc3c(C)cc(C)cc3c2-c2ccccc2Cl)cc(OC)c1OC` [Example 64, 4-(2-chlorophenyl)-6,8-dimethyl-3-[3-(3,4,5-trimethoxyphenyl)ureido]-quinoline]: 69.7%.
On to `CC(=O)Oc1c(C)cc(NC(=O)Nc2cnc3c(C)cc(C)cc3c2-c2ccccc2Cl)c(C)c1C` [Example 78, 3-[3-(4-Acetoxy-2,3,5-trimethylphenyl)ureido]-4-(2-chlorophenyl)-6,8-dimethylquinoline], for which, in experiment [1], the inhibition at 1 µM turned out to be 98.2%.
As for `CSc1ccccc1-c1c(NC(=O)Nc2ccc(F)cc2F)cnc2ccc(C)cc12` [Example 59, 3-[3-(2,4-Difluorophenyl)ureido]-6-mehtyl-4-(2-mehtylthiophenyl)quinoline], the inhibition at 1 µM in experiment [1] turned out to be 97.5%.
Still for that read-out and setting: next, `O=C(Nc1ccc(F)cc1F)Nc1cnc2ccc(Cl)cc2c1-c1ccccc1F` [Example 22, 6-Chloro-3-[3-(2,4-difluorophenyl)ureido]-4-(2-fluorophenyl)quinoline]: 96.8%; `Cc1cc(Cl)cc2c(-c3ccccc3Cl)c(NC(=O)Nc3ccc(F)cc3F)cnc12` [Example 38, 6-Chloro-4-(2-chlorophenyl)-3-[3-(2,4-difluorophenyl)ureido]-8-methylquinoline]: 98.3%; `O=C(Nc1ccccc1F)Nc1cnc2ccc(Cl)cc2c1-c1ccccc1` [Example 4, 6-Chloro-3-[3-(2-fluorophenyl)ureido]-4-phenylquinoline]: 75%.
On the same count and under the same terms, next, `CC(C)c1ccc2ncc(NC(=O)Nc3ccc(F)cc3F)c(-c3ccccc3Cl)c2c1` [Example 34, 4-(2-Chlorophenyl)-3-[3-(2,4-difluorophenyl)ureido]-6-isopropylquinoline]: 99.3%; `Cc1cc2ncc(NC(=O)Nc3ccc(F)cc3F)c(-c3ccccc3Cl)c2cc1C` [Example 73, 4-(2-Chlorophenyl)-3-[3-(2,4-difluorophenyl)ureido]-6,7-dimethylquinoline]: 99.6%.
